{
  "source": "patent US7534780B2",
  "about": "“Estradiol prodrugs” (Bayer Schering Pharma Aktiengesellschaft, priority 2004, dated 2009)",
  "key": {"angiotensinogen": {"test_system": "angiotensinogen", "experiment": "Liver estrogeneity (marker angiotensinogen) in ovariectomized rats", "format": "in vivo, rat", "conditions": "oral administration", "method": "(§1) Adult Wistar rats were ovariectomized 14 days after this operation for the study of the substances according to the invention. A treatment extended over 3 days (days 1-3); on day 4 after the animals were sacrificed, the recovery of plasma for hormone-analytical and clinical-chemical determinations and the determination of uterus weights were carried out. In satellite tests, correspondingly conditioned animals were sacrificed and samples were taken of their blood after one-time treatment and at other times (see Table 1 for determining estradiol and estrone in the plasma)."}, "Human Carboanhydrase I": {"target": "Human Carboanhydrase I (Homo sapiens, UniProt P00915)", "sequence (P00915 whole entry)": "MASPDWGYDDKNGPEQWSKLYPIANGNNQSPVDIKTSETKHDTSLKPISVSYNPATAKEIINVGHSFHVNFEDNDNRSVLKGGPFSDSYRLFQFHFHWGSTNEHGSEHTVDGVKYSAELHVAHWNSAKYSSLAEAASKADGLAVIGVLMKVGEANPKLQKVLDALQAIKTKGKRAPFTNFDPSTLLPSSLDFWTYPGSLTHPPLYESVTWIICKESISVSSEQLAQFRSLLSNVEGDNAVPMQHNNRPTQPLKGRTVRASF", "experiment": "Inhibition of carboanhydrase I (CO2 hydration)", "format": "biochemical", "conditions": "read-out: CAI IC50", "procedure": "Test preparation: A constant CO2 stream is directed by a buffer that was mixed with carboanhydrase I. The time that is required to reduce the pH within defined limits is a measuring parameter. This parameter reflects the formation of H2CO3 in the medium. IC50 inhibiting values are determined by test substances being pipetted into the test preparation."}, "erythrocytes [1]": {"test_system": "erythrocytes", "experiment": "Displacement of estradiol-3-sulfamate from the erythrocyte bond (relative binding affinity)", "design": "species or system human", "conditions": "for RBA to Erythrocytes: human blood, displacement of 14C-labeled estradiol sulfamate; for bond to erythrocytes (in words): m-substituted versus p-substituted compounds", "method": "The SO2—NTH2 group of the substances according to the invention can result in a concentration in erythrocytes by binding to carboanhydrases. The displacement of estradiol-3-sulfamate from the erythrocyte bond by test substances is measured.\nTest preparation: Human blood is mixed with a mixture that consists of ^14C-labeled and unlabeled estradiol sulfamate. The erythrocytes are saturated at the selected working point, and the distribution in plasma/erythrocytes is 40:60. A second blood sample is mixed with a mixture that consists of ^14C-labeled estradiol sulfamate and unlabeled test substance. The relative binding affinity is calculated from the proportion of ^14C-labeled estradiol sulfamate in plasma: higher proportion=strong displacement of ^14C-estradiol sulfamate from the erythrocytes by the test substance=high binding affinity of the test substances to the erythrocytes."}, "erythrocytes [2]": {"test_system": "erythrocytes", "experiment": "Determination of the erythrocyte/plasma ratio of the substance", "format": "in vitro ADME", "conditions": "fresh blood; tracer use for compound 1 or 9, otherwise non-radioactive", "method": "Determination of the substance concentration in the erythrocyte/plasma ratio (tracer use):\nFresh blood is incubated with a defined amount of tracer compound of compound 1 or 9. After the erythrocytes are separated, the measured radioactivity in the erythrocytes is put into a ratio with the measured radioactivity in the plasma.\nDetermination of the erythrocyte/plasma ratio (non-radioactive):\nFreshly-obtained, heparinized blood is mixed with a defined amount of test substance. The concentration in the plasma obtained therefrom is measured. The erythrocyte/plasma ratio is calculated from the measured concentration of the total substance in the plasma and the concentration that is used."}, "ovariectomized rats": {"test_system": "ovariectomized rats", "experiment": "Induction of uterus growth in ovariectomized rats, oral treatment days 1-3", "format": "in vivo, rat", "conditions": "oral administration", "method": "as §1\nIn FIG. 1, the induction of uterus growth in ovariectomized rats is depicted. The treatment is carried out orally from day 1 to the 3rd day, and then the autopsy is carried out on the 4th day. A maximum uterus growth predominantly at 30 μg/animal/day is shown."}, "[3]": {"experiment": "Estradiol (E2) and estrone (E1) levels in plasma of rats after one-time oral administration", "format": "in vivo, rat", "method": "as §1"}},
  "data": [
    {"smiles": "C#C[C@]1(O)CC[C@H]2[C@@H]3CCc4cc(O)ccc4[C@H]3CC[C@@]21C", "note": "[ethinyl estradiol, 17α-ethinyl estradiol, reference compound]", "values": [
      {"measurement": "hepatic estrogenic action, marker angiotensinogen (in words)", "setting": "angiotensinogen", "value": "significant increase in angiotensinogen"}
    ]},
    {"smiles": "C[C@]12CC[C@@H]3c4ccc(OS(N)(=O)=O)cc4CC[C@H]3[C@@H]1CC[C@@H]2O", "note": "[Estradiol-3-sulfamate, reference compound]", "values": [
      {"measurement": "IC50", "setting": "Human Carboanhydrase I", "value": "157 ± 10.6", "unit": "nM"},
      {"measurement": "RBA to Erythrocytes", "setting": "erythrocytes [1]", "value": 100},
      {"measurement": "Distribution Ratio of the Substance to Erythrocytes/Plasma", "setting": "erythrocytes [2]", "value": 49}
    ]},
    {"smiles": "C[C@]12CC[C@@H]3c4ccc(O)cc4CC[C@H]3[C@@H]1CC[C@@H]2OC(=O)c1cccc(S(N)(=O)=O)c1", "note": "[Compound 9, 3-Hydroxyestra-1,3,5(10)-trien-17β-yl 3′-sulfamoylbenzoate]", "values": [
      {"measurement": "IC50", "setting": "Human Carboanhydrase I", "value": 380, "unit": "nM"},
      {"measurement": "estrogenic activity in the uterus / uterus growth (in words)", "setting": "ovariectomized rats", "value": "enhanced in comparison to estradiol"},
      {"measurement": "oral availability and estrogeneity compared with the p-substituted compound (in words)", "setting": "[3]", "value": "higher oral availability and estrogeneity"},
      {"measurement": "increase of mother estrogen (estradiol) on oral administration (in words)", "setting": "[3]; rats", "value": "very strong increase"},
      {"measurement": "RBA to Erythrocytes", "setting": "erythrocytes [1]", "value": 0.18},
      {"measurement": "bond to erythrocytes (in words)", "setting": "erythrocytes [1]", "value": "weaker bonds"},
      {"measurement": "Distribution Ratio of the Substance to Erythrocytes/Plasma", "setting": "erythrocytes [2]", "value": 4}
    ]},
    {"smiles": "C[C@]12CC[C@@H]3c4ccc(O)cc4CC[C@H]3[C@@H]1CC[C@@H]2OC(=O)c1ccc(S(N)(=O)=O)cc1", "note": "[Compound 1, 3-Hydroxyestra-1,3,5(10)-trien-17β-yl 4′-sulfamoylbenzoate]", "values": [
      {"measurement": "IC50", "setting": "Human Carboanhydrase I", "value": 190, "unit": "nM"},
      {"measurement": "estrogenic activity in the uterus / uterus growth (in words)", "setting": "ovariectomized rats", "value": "superior action on the uterus growth"},
      {"measurement": "RBA to Erythrocytes", "setting": "erythrocytes [1]", "value": 32},
      {"measurement": "bond to erythrocytes (in words)", "setting": "erythrocytes [1]", "value": "very strong bond"},
      {"measurement": "hepatic estrogenic action, marker angiotensinogen (in words)", "setting": "angiotensinogen", "value": "much lesser action on estrogen-modulated liver functions"},
      {"measurement": "Distribution Ratio of the Substance to Erythrocytes/Plasma", "setting": "erythrocytes [2]", "value": 7.7}
    ]},
    {"smiles": "C[C@]12CC[C@@H]3c4ccc(O)cc4CC[C@H]3[C@@H]1CC[C@@H]2OC(=O)c1cc(S(N)(=O)=O)c(Cl)cc1Cl", "note": "[Compound 7, 3-Hydroxyestra-1,3,5(10)-trien-17β-yl 2′,4′-dichloro-5′-sulfamoylbenzoate]", "values": [
      {"measurement": "IC50", "setting": "Human Carboanhydrase I", "value": 500, "unit": "nM"},
      {"measurement": "RBA to Erythrocytes", "setting": "erythrocytes [1]", "value": 0.40},
      {"measurement": "bond to erythrocytes (in words)", "setting": "erythrocytes [1]", "value": "weaker bonds"},
      {"measurement": "Distribution Ratio of the Substance to Erythrocytes/Plasma", "setting": "erythrocytes [2]", "value": 5}
    ]}
  ]
}
